Where two headings read alike, the source gives them in different places.
Columns and labels:
[1] = system: NF-κB; experiment: Measurement of NF-κB activation using THP1-Blue NF-κB cells (SEAP); assay type: cell-based; details: for activity at 5 µM: 20 h, two point normalized, compound 1 as 200%; for NF-κB activity (SAR discussion, in words): evaluated in both the presence and absence of LPS; for NF-κB activity when tested alone (in words): compound alone, without LPS
[2] = system: NF-κB; experiment: cell-based NF-κB FRET assay; details: compound + LPS; two point normalized, compound 1 as 200%, LPS (10 ng/mL) as 100%
From the text: Site A was assigned the 4-substituent of thiazole ring, site B was the thiazole ring itself, site C was the central amide bond in the structure, site D was the benzene ring bearing 1,4-carboxyl and sulfamoyl group, site E was the sulfonamide functional group and site F was the amide substituent on the sulfamoyl group.

[3] = system: THP-1 cells; experiment: Cell viability assay (MTT); assay type: cell-based; details: compound 5 μM alone, 18 h, normalized to DMSO as 100%
Description: THP-1 cells were plated in 96-well plates (10^5 cells/well) in 100 μL RPMI supplemented with 10% FBS, 100 U/mL penicillin and 100 μg/ml streptomycin. Compounds were dissolved in DMSO at 1 mM stock solution and were further diluted to 10 μM in the assay medium. 100 μL of this solution was added to the cells to obtain a final compound concentration of 5 μM ([…]). After 18 h incubation, a solution of MTT in assay media (0.5 mg/mL) was added to each well and further incubated for 4 to 6 h, followed by addition of cell lysis buffer (15% w/v SDS and 0.12% v/v 12N HCl aqueous solution), incubated overnight, and then absorbance measured at 570 nm using 650 nm as reference using Tecan Infinite M200 plate reader.

[4] = compound 5 μM + LPS, LPS (10 ng/mL) as 100%, read-out: NF-κB SEAP Compound + LPS % Activation
[5] = compound 5 μM alone, LPS or DMSO as 100%, read-out: NF-κB SEAP Compound alone % Activation

SMILES | activity at 5 µM [1, 4] | activity at 5 µM [1, 5] | NF-κB activity (SAR discussion, in words) [1] | NF-κB FRET Compound + LPS % Activation [2] | MTT Compound alone % Viability [3] | NF-κB activity when tested alone (in words) [1]
Cc1ccc(C)c(-c2csc(NC(=O)c3ccc(S(=O)(=O)C4CCCCC4)cc3)n2)c1 [Compound 49b, 4-(cyclohexylsulfonyl)-N-(4-(2,5-dimethylphenyl)thiazol-2-yl)benzamide] | 114% | 99.8% | none of these modifications at site D or E were tolerated | 136.43% | 81.81% | –
CCCC#Cc1sc(NC(=O)c2ccc(S(=O)(=O)N3CCCCC3)cc2)nc1-c1cc(C)ccc1Br [Compound 64, N-(4-(2-bromo-5-methylphenyl)-5-(pent-1-yn-1-yl)thiazol-2-yl)-4-(piperidin-1-ylsulfonyl)benzamide] | 287% | 348% | very potent and showed better potency than compound 1 | 196.14% | 101.42% | –
Cc1ccc(C)c(-c2nc(NC(=O)c3ccc(S(=O)(=O)N4CCCCC4)cc3)sc2N2CCCCC2)c1 [Compound 18h, N-(4-(2,5-dimethylphenyl)-5-(piperidin-1-yl)thiazol-2-yl)-4-(piperidin-1-ylsulfonyl)benzamide] | 99.9% | 99.2% | completely inactive | 99.96% | 89.45% | –
Cc1ccc(N=[N+]=[N-])cc1-c1csc(NC(=O)c2ccc(S(=O)(=O)N3CCCCC3)cc2)n1 [Compound 67, N-(4-(5-azido-2-methylphenyl)thiazol-2-yl)-4-(piperidin-1-ylsulfonyl)benzamide] | 159% | 177% | retained activity | 168.96% | 90.50% | –
CCN(CC)c1sc(NC(=O)c2ccc(S(=O)(=O)N3CCCCC3)cc2)nc1-c1cc(C)ccc1C [Compound 18g, N-(5-(diethylamino)-4-(2,5-dimethylphenyl)thiazol-2-yl)-4-(piperidin-1-ylsulfonyl)benzamide] | 98.1% | 98% | completely inactive | 92.64% | 94.30% | –
Cc1ccc(Br)cc1-c1csc(NC(=O)c2ccc(S(=O)(=O)N3CCCCC3)cc2)n1 [Compound 12e, N-(4-(5-bromo-2-methylphenyl)thiazol-2-yl)-4-(piperidin-1-ylsulfonyl)benzamide] | 213% | 207% | active | 189.97% | 91.50% | –
CCC#Cc1sc(NC(=O)c2ccc(S(=O)(=O)N3CCCCC3)cc2)nc1-c1cc(C)ccc1C [Compound 18p, N-(5-(but-1-yn-1-yl)-4-(2,5-dimethylphenyl)thiazol-2-yl)-4-(piperidin-1-ylsulfonyl)benzamide] | 192% | 291% | – | 210.21% | 120.17% | very potent
Cc1ccc(C)c(-c2csc(NS(=O)(=O)c3ccc(C(=O)N4CCCCC4)cc3)n2)c1 [Compound 55, N-(4-(2,5-dimethylphenyl)thiazol-2-yl)-4-(piperidine-1-carbonyl)benzenesulfonamide] | 91.7% | 103% | inactive | 70.37% | 58.91% | –
C#Cc1sc(NC(=O)c2ccc(S(=O)(=O)N3CCCCC3)cc2)nc1-c1cc(C)ccc1C [Compound 18o, N-(4-(2,5-dimethylphenyl)-5-ethynylthiazol-2-yl)-4-(piperidin-1-ylsulfonyl)benzamide] | 153% | 118% | weak activity | 101.71% | 111.27% | –
C#CCNS(=O)(=O)c1ccc(C(=O)Nc2nc(-c3cc(C)ccc3C)cs2)cc1 [Compound 72a, N-(4-(2,5-dimethylphenyl)thiazol-2-yl)-4-(N-(prop-2-yn-1-yl)sulfamoyl)benzamide] | 102% | 99.2% | lost their activity | 121.36% | 87.46% | –
CCc1csc(NC(=O)c2ccc(S(=O)(=O)N3CCCCC3)cc2)n1 [Compound 12h, N-(4-ethylthiazol-2-yl)-4-(piperidin-1-ylsulfonyl)benzamide] | 94% | 98.7% | None of these molecules had any NF-κB activity | 108.38% | 122.75% | –
C#CC1CCN(S(=O)(=O)c2ccc(C(=O)Nc3nc(-c4cc(C)ccc4C)cs3)cc2)CC1 [Compound 72d, N-(4-(2,5-dimethylphenyl)thiazol-2-yl)-4-((4-ethynylpiperidin-1-yl)sulfonyl)benzamide] | 152% | 112% | active | 123.22% | 83.27% | –
Cc1ccccc1-c1csc(NC(=O)c2ccc(S(=O)(=O)N3CCCCC3)cc2)n1 [Compound 12b, 4-(piperidin-1-ylsulfonyl)-N-(4-(o-tolyl)thiazol-2-yl)benzamide] | 105% | 99.2% | inactive | 100.13% | 95.69% | –
Cc1cccc(-c2csc(NC(=O)c3ccc(S(=O)(=O)N4CCCCC4)cc3)n2)c1 [Compound 12c, 4-(piperidin-1-ylsulfonyl)-N-(4-(m-tolyl)thiazol-2-yl)benzamide] | 98.6% | 99.5% | inactive | 78.98% | 96.06% | –
Cc1ccc(-c2csc(NC(=O)c3ccc(S(=O)(=O)N4CCCCC4)cc3)n2)cc1C [Compound 12n, N-(4-(3,4-dimethylphenyl)thiazol-2-yl)-4-(piperidin-1-ylsulfonyl)benzamide] | 98% | 98.7% | inactive | 128.01% | 97.59% | –
CCCC#Cc1sc(NC(=O)c2ccc(S(=O)(=O)N3CCCCC3)cc2)nc1-c1cc(C)ccc1C [Compound 18q, N-(4-(2,5-dimethylphenyl)-5-(pent-1-yn-1-yl)thiazol-2-yl)-4-(piperidin-1-ylsulfonyl)benzamide] | 242% | 393% | most potent | 215.78% | 105.84% | very potent
Cc1ccc(C)c(-c2csc(NC(=O)c3ccc(SC4CCCCC4)cc3)n2)c1 [Compound 49a, 4-(cyclohexylthio)-N-(4-(2,5-dimethylphenyl)thiazol-2-yl)benzamide] | 114% | 99.7% | none of these modifications at site D or E were tolerated | 139.79% | 85.22% | –
C#CCN(CC)S(=O)(=O)c1ccc(C(=O)Nc2nc(-c3cc(C)ccc3C)cs2)cc1 [Compound 72b, N-(4-(2,5-dimethylphenyl)thiazol-2-yl)-4-(N-ethyl-N-(prop-2-yn-1-yl)sulfamoyl)benzamide] | 109% | 105% | lost their activity | 129.85% | 81.42% | –
Cc1ccc(-c2csc(NC(=O)c3ccc(S(=O)(=O)N4CCCCC4)cc3)n2)c(C)c1 [Compound 12m, N-(4-(2,4-dimethylphenyl)thiazol-2-yl)-4-(piperidin-1-ylsulfonyl)benzamide] | 86.7% | 98.5% | inactive | 161.33% | 101.40% | –
Cc1ccc(C)c(-c2csc(NC(=O)c3cccc(C(=O)N4CCCCC4)c3)n2)c1 [Compound 49d, N-(4-(2,5-dimethylphenyl)thiazol-2-yl)-3-(piperidine-1-carbonyl)benzamide] | 112% | 99.6% | none of these modifications at site D or E were tolerated | 136.46% | 88.06% | –

From US12091393B2, “Small molecule vaccine adjuvant for enhancing or prolonging immune response” (The Regents of the University of California, priority 2018, dated 2024)
